Measured values published in the OligoGym collection.
“And” between values parts separate entries of the source, which are not always exact repeats. Equal values may be shown once. HELM strings list units from the 5' end as sugar, base in round brackets, then linkage (d deoxyribose, r ribose, m 2'-O-methyl, p phosphodiester). Methylation of C is not given here. [moe] = 2'-O-(2-methoxyethyl) (MOE); [cEt] = constrained ethyl (cEt); [sp] = phosphorothioate linkage

Target: HBV
Conditions: ASO

Substance	target mRNA inhibition (HepG2, 0.07 µM)	also measured
RNA1{[moe](C)[sp].[moe](C)[sp].d(A)[sp].d(A)[sp].d(T)[sp].d(T)[sp].d(T)[sp].d(A)[sp].d(T)[sp].d(G)[sp].d(C)[sp].[moe](C)[sp].[moe](T)[sp].[moe](A)[sp].[moe](C)[sp].[moe](A)[sp].[moe](G)}$$$$V2.0	41% and 42%	–
RNA1{[moe](C)[sp].[moe](C)[sp].d(A)[sp].d(A)[sp].d(T)[sp].d(T)[sp].d(T)[sp].d(A)[sp].d(T)[sp].d(G)[sp].d(C)[sp].[moe](C)[sp].[moe](T)[sp].[moe](A)[sp].[moe](C)[sp].[moe](A)}$$$$V2.0	13% and 22%	–
RNA1{[moe](C)[sp].[moe](C)[sp].d(G)[sp].d(C)[sp].d(A)[sp].d(G)[sp].d(T)[sp].d(A)[sp].d(T)[sp].d(G)[sp].d(G)[sp].[moe](A)[sp].[moe](T)[sp].[moe](C)[sp].[moe](G)[sp].[moe](G)[sp].[moe](C)}$$$$V2.0	86% and 80%	–
RNA1{[moe](C)[sp].[moe](G)[sp].[moe](A)[sp].[moe](A)[sp].[moe](C)[sp].[moe](C)[sp].d(A)[sp].d(C)[sp].d(T)[sp].d(G)[sp].d(A)[sp].d(A)[sp].d(C)[sp].d(A)[sp].d(A)[sp].[moe](A)[sp].[moe](T)}$$$$V2.0	0% and 20%	–
RNA1{[moe](C)[sp].[moe](G)[sp].[moe](A)[sp].[moe](A)[sp].[moe](C)[sp].d(C)[sp].d(A)[sp].d(C)[sp].d(T)[sp].d(G)[sp].d(A)[sp].d(A)[sp].d(C)[sp].d(A)[sp].[moe](A)[sp].[moe](A)}$$$$V2.0	36% and 19%	–
RNA1{[moe](C)[sp].[moe](G)[sp].[moe](A)[sp].[moe](A)[sp].d(C)[sp].d(C)[sp].d(A)[sp].d(C)[sp].d(T)[sp].d(G)[sp].d(A)[sp].d(A)[sp].d(C)[sp].[moe](A)[sp].[moe](A)[sp].[moe](A)[sp].[moe](T)}$$$$V2.0	48% and 41%	–
RNA1{[moe](C)[sp].[moe](G)[sp].[moe](C)[sp].[moe](A)[sp].[moe](G)[sp].d(T)[sp].d(A)[sp].d(T)[sp].d(G)[sp].d(G)[sp].d(A)[sp].d(T)[sp].d(C)[sp].d(G)[sp].[moe](G)[sp].[moe](C)[sp].[moe](A)}$$$$V2.0	56% and 57%	–
RNA1{[moe](C)[sp].[moe](G)[sp].[moe](C)[sp].[moe](A)[sp].[moe](G)[sp].d(T)[sp].d(A)[sp].d(T)[sp].d(G)[sp].d(G)[sp].d(A)[sp].d(T)[sp].d(C)[sp].d(G)[sp].[moe](G)[sp].[moe](C)}$$$$V2.0	64% and 57%	–
RNA1{[moe](C)[sp].[moe](G)[sp].[moe](C)[sp].d(A)[sp].d(G)[sp].d(T)[sp].d(A)[sp].d(T)[sp].d(G)[sp].d(G)[sp].d(A)[sp].d(T)[sp].[moe](C)[sp].[moe](G)[sp].[moe](G)[sp].[moe](C)[sp].[moe](A)}$$$$V2.0	85% and 80%	target mRNA inhibition (HepG2, 0.0092593 µM): 7%; target mRNA inhibition (HepG2, 0.0277778 µM): 38%; target mRNA inhibition (HepG2, 0.0833333 µM): 78%; target mRNA inhibition (HepG2, 0.25 µM): 89%
RNA1{[moe](C)[sp].[moe](G)[sp].[moe](G)[sp].d(G)[sp].d(C)[sp].d(A)[sp].d(A)[sp].d(C)[sp].d(A)[sp].d(T)[sp].d(A)[sp].d(C)[sp].[moe](C)[sp].[moe](T)[sp].[moe](T)[sp].[moe](G)}$$$$V2.0	56% and 45%	–
RNA1{[moe](C)[sp].[moe](G)[sp].[moe](G)[sp].d(G)[sp].d(C)[sp].d(A)[sp].d(A)[sp].d(C)[sp].d(A)[sp].d(T)[sp].d(A)[sp].d(C)[sp].d(C)[sp].[cEt](T)[sp].[cEt](T)[sp].[cEt](G)}$$$$V2.0	56% and 65%	–
RNA1{[moe](C)[sp].[moe](G)[sp].[moe](T)[sp].[moe](G)[sp].[moe](C)[sp].d(A)[sp].d(G)[sp].d(A)[sp].d(G)[sp].d(G)[sp].d(T)[sp].d(G)[sp].d(A)[sp].d(A)[sp].[moe](G)[sp].[moe](C)[sp].[moe](G)}$$$$V2.0	74% and 63%	–
RNA1{[moe](C)[sp].[moe](G)[sp].[moe](T)[sp].[moe](G)[sp].d(C)[sp].d(A)[sp].d(G)[sp].d(A)[sp].d(G)[sp].d(G)[sp].d(T)[sp].d(G)[sp].d(A)[sp].[moe](A)[sp].[moe](G)[sp].[moe](C)[sp].[moe](G)}$$$$V2.0	58% and 43%	–
RNA1{[moe](C)[sp].[moe](G)[sp].[moe](T)[sp].d(G)[sp].d(C)[sp].d(A)[sp].d(G)[sp].d(A)[sp].d(G)[sp].d(G)[sp].d(T)[sp].d(G)[sp].[moe](A)[sp].[moe](A)[sp].[moe](G)[sp].[moe](C)}$$$$V2.0	62% and 42%	–
RNA1{[moe](C)[sp].[moe](G)[sp].d(T)[sp].d(G)[sp].d(C)[sp].d(A)[sp].d(G)[sp].d(A)[sp].d(G)[sp].d(G)[sp].d(T)[sp].[moe](G)[sp].[moe](A)[sp].[moe](A)[sp].[moe](G)[sp].[moe](C)[sp].[moe](G)}$$$$V2.0	74% and 68%	–
RNA1{[moe](C)[sp].[moe](T)[sp].[moe](A)[sp].d(G)[sp].d(T)[sp].d(A)[sp].d(A)[sp].d(A)[sp].d(C)[sp].d(T)[sp].d(G)[sp].d(A)[sp].[moe](G)[sp].[moe](C)[sp].[moe](C)[sp].[moe](A)}$$$$V2.0	66% and 60%	–
RNA1{[moe](C)[sp].[moe](T)[sp].[moe](G)[sp].[moe](G)[sp].[moe](A)[sp].[moe](G)[sp].d(C)[sp].d(C)[sp].d(A)[sp].d(C)[sp].d(C)[sp].d(A)[sp].d(G)[sp].d(C)[sp].d(A)[sp].[moe](G)[sp].[moe](G)}$$$$V2.0	54% and 50%	–
RNA1{[moe](C)[sp].[moe](T)[sp].[moe](G)[sp].[moe](G)[sp].[moe](A)[sp].d(G)[sp].d(C)[sp].d(C)[sp].d(A)[sp].d(C)[sp].d(C)[sp].d(A)[sp].d(G)[sp].d(C)[sp].[moe](A)[sp].[moe](G)[sp].[moe](G)}$$$$V2.0	42% and 44%	–
RNA1{[moe](C)[sp].[moe](T)[sp].[moe](G)[sp].d(G)[sp].d(A)[sp].d(G)[sp].d(C)[sp].d(C)[sp].d(A)[sp].d(C)[sp].d(C)[sp].d(A)[sp].[moe](G)[sp].[moe](C)[sp].[moe](A)[sp].[moe](G)[sp].[moe](G)}$$$$V2.0	79% and 64%	–
RNA1{[moe](G)[sp].[cEt](A)[sp].[cEt](A)[sp].d(C)[sp].d(C)[sp].d(A)[sp].d(C)[sp].d(T)[sp].d(G)[sp].d(A)[sp].d(A)[sp].d(C)[sp].d(A)[sp].[cEt](A)[sp].[cEt](A)[sp].[moe](T)}$$$$V2.0	65% and 53%	–
RNA1{[moe](G)[sp].[cEt](A)[sp].[cEt](G)[sp].d(G)[sp].d(C)[sp].d(A)[sp].d(T)[sp].d(A)[sp].d(G)[sp].d(C)[sp].d(A)[sp].d(G)[sp].d(C)[sp].[cEt](A)[sp].[cEt](G)[sp].[moe](G)}$$$$V2.0	64% and 67%	–
RNA1{[moe](G)[sp].[cEt](A)[sp].[cEt](G)[sp].d(T)[sp].d(T)[sp].d(C)[sp].d(C)[sp].d(G)[sp].d(C)[sp].d(A)[sp].d(G)[sp].d(T)[sp].d(A)[sp].[cEt](T)[sp].[cEt](G)[sp].[moe](G)}$$$$V2.0	83% and 76%	–
RNA1{[moe](G)[sp].[cEt](A)[sp].d(A)[sp].d(G)[sp].d(T)[sp].d(C)[sp].d(C)[sp].d(A)[sp].d(C)[sp].d(C)[sp].d(A)[sp].d(C)[sp].[cEt](G)[sp].[moe](A)[sp].[cEt](G)[sp].[moe](T)}$$$$V2.0	43% and 50%	–
